In ChEMBL document CHEMBL3813652, “Arabinoamidine synthesis and its inhibition toward β-glucosidase (sweet almonds) in comparison to a library of galactonoamidines” (Bioorg Med Chem, 2016):
Calls of active or inactive are those of the source. No cut-off for these calls is given here.

Columns and labels:
[1] = Inhibition of sweet almond beta-glucosidase assessed as enzymatic hydrolysis of 2-chloro-4-nitrophenyl beta-D-glucopyranoside preincubated with substrate for 20 mins followed by protein addition by UV-visible spectroscopy; design: species or system Prunus dulcis
[2] = Inhibition of sweet almond beta-glucosidase assessed as enzyme mediated hydrolysis of 2-chloro-4-nitrophenyl beta-D-glucopyranoside preincubated with substrate for 30 mins followed by protein addition measured every 10 secs for 10 mins by UV-visible spectroscopy; design: species or system Prunus dulcis
Prunus dulcis [3] = assay: Competitive inhibition of sweet almond beta-glucosidase assessed as enzymatic hydrolysis of 2-chloro-4-nitrophenyl beta-D-glucopyranoside at 200 and 1200 uM by Lineweaver-Burk plot
Prunus dulcis [4] = assay: Competitive inhibition of sweet almond beta-glucosidase assessed as enzymatic hydrolysis of 2-chloro-4-nitrophenyl beta-D-glucopyranoside at 0.0125 and 0.025 uM by Lineweaver-Burk plot

SMILES	IC50 [1] [µM]	Ki [2] [µM]	inhibition (Prunus dulcis [3])	inhibition (Prunus dulcis [4])
CCCCC(CC)CNC1=N[C@H](CO)[C@H](O)[C@H](O)[C@H]1O (stereo partly drawn)	2.5	17.2		
Cc1ccc(CNC2=N[C@H](CO)[C@H](O)[C@H](O)C2)cc1	> 5000	7.7		
Cc1ccccc1C/N=C1\N[C@H](CO)[C@H](O)[C@H](O)[C@H]1O	8.4	26.2		
CO[C@@H]1[C@H](O)[C@@H](O)C(NCc2ccc(C)cc2)=N[C@@H]1CO	> 5000	13		
OC[C@H]1N/C(=N\Cc2ccccc2)[C@H](O)[C@@H](O)[C@H]1O	2.8	108		
OC[C@H]1N/C(=N\Cc2cccc(F)c2)[C@H](O)[C@@H](O)[C@H]1O	11	124		
CCCCCCCCCCCC/N=C1\N[C@H](CO)[C@H](O)[C@H](O)[C@H]1O	0.4	20.5		
OC[C@H]1N/C(=N\CCCc2ccccc2)[C@H](O)[C@@H](O)[C@H]1O	1.3	28.1		
OC[C@H]1N/C(=N\Cc2ccc(F)cc2)[C@H](O)[C@@H](O)[C@H]1O	4.7	57.5		
OC[C@H]1N/C(=N\Cc2ccc(C(F)(F)F)cc2)[C@H](O)[C@@H](O)[C@H]1O	2.8	87.9		
COc1ccc(C/N=C2\N[C@H](CO)[C@H](O)[C@H](O)[C@H]2O)cc1	13	55.9		
Cc1ccc(CNC2=N[C@H](CO)[C@@H](O)[C@@H]2O)cc1	6200	970	Active	Active
Cc1ccc(C/N=C2\N[C@H](CO)[C@H](O)[C@H](O)[C@H]2O)cc1	3	0.026	Active	Active
CC(C)(C)c1ccc(C/N=C2\N[C@H](CO)[C@H](O)[C@H](O)[C@H]2O)cc1	2.3	14.7		
CO[C@H]1C(NCc2ccc(C)cc2)=N[C@H](CO)[C@H](O)[C@@H]1O	> 5000	5		
OC[C@H]1N/C(=N\Cc2ccccc2F)[C@H](O)[C@@H](O)[C@H]1O	1.8	118		

Now from value to molecule:

IC50 [1] [µM]	Ki [2] [µM]	inhibition (Prunus dulcis [3])	inhibition (Prunus dulcis [4])	SMILES
> 1000				O=C1N[C@H](CO)[C@H](O)[C@H](O)[C@H]1O
> 1000				N=C1N[C@H](CO)[C@H](O)[C@H](O)[C@H]1O
5.1	293			Cc1cccc(C/N=C2\N[C@H](CO)[C@H](O)[C@H](O)[C@H]2O)c1
1.6	49.2			OC[C@H]1N/C(=N\CC2CCCCC2)[C@H](O)[C@@H](O)[C@H]1O
19	11.5			OC[C@H]1N/C(=N\CC2CC2)[C@H](O)[C@@H](O)[C@H]1O
4.8	18.7			CCC/N=C1\N[C@H](CO)[C@H](O)[C@H](O)[C@H]1O
2.2	29.6			CCCCCCC/N=C1\N[C@H](CO)[C@H](O)[C@H](O)[C@H]1O
32	11.8			OC[C@H]1N/C(=N\C2CC2)[C@H](O)[C@@H](O)[C@H]1O
> 5000				OC[C@H]1N/C(=N\C2CCCCC2)[C@H](O)[C@@H](O)[C@H]1O
5	27.1			OC[C@H]1N/C(=N\CC2CCCCCC2)[C@H](O)[C@@H](O)[C@H]1O
